The source of these data is patent US20100081679A1, “DIAMINOPYRIMIDINES AS FUNGICIDES” (Bayer CropScience AG, priority 2007, published 2010).

Marks after values point to notes of the source that are not given here.

The first series can be described thus: logP determination via retention times, calibrated with unbranched alkan-2-ones. The series is classed as physicochemical. As to conditions: HPLC on reversed-phase C 18, EEC Directive 79/831 Annex V.A8; method *: 40° C., 0.1% aqueous formic acid and acetonitrile, linear gradient 10% to 95% acetonitrile.
As to `FC(F)Oc1cccc(Nc2ncc(Cl)c(NC3CC3)n2)c1` [compound 534], the logP is given as 2.51*.
The same measure, in the same setting: the same measure for `CC(C)(C)NC(=O)Cc1cccc(Nc2ncc(Cl)c(NC3CC3)n2)c1` [compound 562]: 1.81*; for `CCC(=O)c1cc(Nc2ncc(Br)c(NCC3CC3)n2)ccc1O` [compound 488]: 2.21*.
Still for that read-out and setting: the same measure for `CC(C)(C)NC(=O)Cc1cccc(Nc2ncc(Cl)c(NCC3CC3)n2)c1` [compound 561]: 1.93*; for `CN(C)S(=O)(=O)Oc1cccc(Nc2ncc(Br)c(NCC3CC3)n2)c1` [compound 485]: 2.51*.
The same measure, in the same setting: the same measure for `CSc1cccc(Nc2ncc(C)c(NC3CC3)n2)c1` [compound 497]: 1.48*.

The series is the same for the next values; noted with them: HPLC on reversed-phase C 18, method **: 43° C.; 0.1% aqueous phosphoric acid and acetonitrile; linear gradient 10% to 95% acetonitrile.
On to `CC(=O)Nc1cc(Nc2ncc(C(F)(F)F)c(NC3CC3)n2)ccc1C` [compound 662], for which the logP is reported as 1.82**.
Regarding `CN(c1nc(Nc2cccc(N3CCCC3=O)c2)ncc1Cl)C1CC1` [compound 769], the logP is 2.22**.

The same series, now with this note: HPLC on reversed-phase C18, method *: 40° C., 0.1% aqueous formic acid and acetonitrile, linear gradient 10% to 95% acetonitrile.
Regarding `CC(=O)Nc1cc(Nc2ncc(C(F)(F)F)c(NC3CC3)n2)ccc1C` [compound 662], the logP was 1.71*;.
On the same count and under the same terms, the same measure for `O=S(=O)(c1cccc(Nc2ncc(Cl)c(NCC3CC3)n2)c1)N1CCCCC1` [compound 675]: 2.16*; for `CC(C)c1ccccc1Nc1ncc(Cl)c(NC2CC2)n1` [compound 872]: 1.96*.
Still for that read-out and setting: the same measure for `FC(F)(F)c1ccc(Nc2ncc(Cl)c(NCC3CC3)n2)cc1` [compound 684]: 3.33*.
For the compound `CSc1ccc(Nc2ncc(Cl)c(NC3CC3)n2)cc1N` [compound 664], the logP is recorded as 1.69*.
For the compound `O=C1CCCCN1c1cccc(Nc2ncc(Cl)c(NC3CC3)n2)c1` [compound 713], the logP is 1.47*.
On to `CSc1ccc(Nc2ncc(Cl)c(NCC3CC3)n2)cc1` [compound 674], for which the logP was 2.18*.
On the same count and under the same terms, the same measure for `NS(=O)(=O)c1cc(Nc2ncc(Cl)c(NC3CC3)n2)ccc1Cl` [compound 949]: 1.66*.
The same measure, in the same setting: the same measure for `CCC(=O)c1ccc(Nc2ncc(Cl)c(NCC3CC3)n2)cc1` [compound 677]: 2.55*.

The series is the same for the next values; noted with them: HPLC on reversed-phase C18, method *: 40° C.; mobile phase 0.1% aqueous formic acid and acetonitrile; linear gradient 10% to 95% acetonitrile.
Regarding `O=C(Nc1ccc(Nc2ncc(Br)c(NC3CC3)n2)cc1)C(F)(F)F` [compound 350], the logP is reported as 1.97*.
Same read-out and setting: the same measure for `Clc1cnc(Nc2ccc(-c3cscn3)cc2)nc1NC1CC1` [compound 286]: 1.9*.
Turning to `Clc1cnc(Nc2ccc(Br)cc2)nc1NC1CC1` [compound 281], the logP is on record as 2.55*.
Still for that read-out and setting: the same measure for `CC(=O)c1cccc(Nc2ncc(Br)c(NC3CC3)n2)c1` [compound 358]: 1.85*; for `N#Cc1cccc(Nc2ncc(Cl)c(NC3CC3)n2)c1` [compound 278]: 2.13*.

The series is the same for the next values; noted with them: HPLC on reversed-phase C18 column (EEC Directive 79/831 Annex V.A8); method *: 40° C.; 0.1% aqueous formic acid and acetonitrile; linear gradient 10% to 95% acetonitrile.
Consider `CS(=O)(=O)c1cccc(Nc2ncc(Cl)c(NC3CC3)n2)c1` [compound 252], for which the logP was 1.63*.
Same read-out and setting: the same measure for `Cc1cc(O)ccc1Nc1ncc(Cl)c(NC2CC2)n1` [compound 177]: 1.09*; for `CS(=O)(=O)Nc1cccc(Nc2ncc(Cl)c(NC3CC3)n2)c1` [compound 242]: 1.47*.
On the same count and under the same terms, the same measure for `Cc1cc(Nc2ncc(Cl)c(NC3CC3)n2)ccc1O` [compound 180]: 1.09*.
Same read-out and setting: the same measure for `CC(C)(C)C(=O)Cc1ccc(Nc2ncc(C(F)(F)F)c(NCC3CC3)n2)cc1` [compound 210]: 3.41*; for `CC(C)Oc1cccc(Nc2ncc(Cl)c(NC3CC3)n2)c1` [compound 195]: 2.45*.

The same series, now with this note: HPLC reversed-phase C 18, EEC Directive 79/831 Annex V.A8; method **: 43° C., 0.1% aqueous phosphoric acid and acetonitrile, linear gradient 10% to 95% acetonitrile.
Take `Brc1cnc(Nc2cccc(I)c2)nc1NC1CC1` [compound 860]: the logP is given as 3.34**.
For `O=c1ccccn1-c1cccc(Nc2ncc(Br)c(NC3CC3)n2)c1` [compound 833], the logP is given as 1.46**.

Still in this series, the particulars now being: HPLC reversed-phase C 18, EEC Directive 79/831 Annex V.A8; method *: 40° C., 0.1% aqueous formic acid and acetonitrile, linear gradient 10% to 95% acetonitrile.
As for `CCSC(C)c1cccc(Nc2ncc(Cl)c(NC3CC3)n2)c1` (stereo not shown) [compound 810], the logP is reported as 2.82*.
`O=C1COCCN1c1cccc(Nc2ncc(C(F)(F)F)c(NC3CC3)n2)c1` [compound 790]: the logP was 1.88*.
Same read-out and setting: the same measure for `CCc1cccc(Nc2ncc(Br)c(NC3CC3)n2)c1` [compound 775]: 2.44*; for `COCC(=O)Nc1cccc(Nc2ncc(Cl)c(NC3CC3)n2)c1` [compound 793]: 1.33*; for `CC(C)(C)CSCc1ccc(Nc2ncc(Cl)c(NC3CC3)n2)cc1` [compound 823]: 3.78*.
The same measure, in the same setting: the same measure for `O=c1ccccn1-c1cccc(Nc2ncc(Br)c(NC3CC3)n2)c1` [compound 833]: 1.46*;.

The series is the same for the next values; noted with them: method **: HPLC reversed-phase C 18, 43° C., 0.1% aqueous phosphoric acid and acetonitrile, linear gradient 10% to 95% acetonitrile.
As to `CCOC1(Nc2nc(Nc3ccccc3)ncc2Cl)CC1` [compound 39], the logP is 2.23**.
The same measure, in the same setting: the same measure for `O=C1CCCN1c1cc(Nc2ncc(Cl)c(NC3CC3)n2)ccc1Cl` [compound 368]: 1.9**.

Still in this series, the particulars now being: method **: HPLC reversed-phase C 18, temperature 43° C.; mobile phase 0.1% aqueous phosphoric acid and acetonitrile; linear gradient 10% to 95% acetonitrile.
In the case of `CC(C)NC(=O)Nc1ccc(Nc2ncc(Cl)c(NC3CC3)n2)cc1` [compound 632], the logP is on record as 1.32**.

The same series, now with this note: method **: HPLC, reversed-phase C 18, 43° C., mobile phase 0.1% aqueous phosphoric acid and acetonitrile, linear gradient from 10% to 95% acetonitrile.
For the compound `COCc1cccc(Nc2ncc(Cl)c(NC3CC3(C)C)n2)c1` (stereo not shown) [compound 1028], the logP is 2.37**.

Staying with this series, now noted: method *: HPLC reversed-phase C18, 40° C., 0.1% aqueous formic acid and acetonitrile, linear gradient 10% to 95% acetonitrile.
As to `CC(=O)c1cc(Nc2ncc(Br)c(NCC3CC3)n2)ccc1O` [compound 463], the logP was 1.92*.
Still for that read-out and setting: the same measure for `CC(C)(C)OC(=O)Nc1ccc(Nc2ncc(Br)c(NC3CC3)n2)cc1` [compound 391]: 2.13*.
Same read-out and setting: the same measure for `CC(C)(C)C(=O)Cc1ccc(Nc2ncc(Br)c(NCC3CC3)n2)cc1` [compound 455]: 2.48*; for `CSc1cc(Nc2ncc(Br)c(NCC3CC3)n2)ccc1C` [compound 459]: 2.58*; for `O=S(=O)(Cc1cccc(Nc2ncc(Cl)c(NC3CC3)n2)c1)Nc1ccccc1` [compound 370]: 2.15*.
The same measure, in the same setting: the same measure for `CNC(=O)c1ccc(Nc2ncc(Br)c(NCC3CC3)n2)cc1` [compound 424]: 1.58*; for `COC(=O)c1ccc(Nc2ncc(Cl)c(NC3CC3)n2)cc1` [Example 37]: 2.23*.
`CCN(C(C)=O)c1ccc(Nc2ncc(Br)c(NC3CC3)n2)cc1` [compound 380]: the logP is listed as 1.73*.
Turning to `CS(=O)(=O)c1ccc(Nc2ncc(Br)c(NCC3CC3)n2)cc1` [compound 448], the logP is listed as 2.09*.
On the same count and under the same terms, the same measure for `CC(C)(C)OC(=O)N1CCN(c2ccc(Nc3ncc(Cl)c(NC4CC4)n3)cc2)CC1` [compound 7]: 2.4*.
Take `CNC(=O)Oc1cccc(Nc2ncc(Br)c(NC3CC3)n2)c1` [compound 386]: the logP is 1.56*.

Staying with this series, now noted: method *: HPLC reversed-phase C 18, temperature 40° C.; mobile phase 0.1% aqueous formic acid and acetonitrile; linear gradient 10% to 95% acetonitrile.
As to `CS(=O)(=O)c1ccc(Nc2ncc(C(F)(F)F)c(NC3CC3)n2)cc1` [compound 644], the logP is reported as 2.36*.
Same read-out and setting: the same measure for `Fc1cnc(Nc2cccc(OC(F)(F)F)c2)nc1NC1CC1` [compound 576]: 2.33*.
On the same count and under the same terms, the same measure for `O=C1CCCN1c1ccc(Nc2ncc(F)c(NC3CC3)n2)cc1` [compound 593]: 1.35*; for `CN1CCN(c2cccc(Nc3ncc(Cl)c(NCC4CC4)n3)c2)C1=O` [compound 618]: 1.58*.

Still in this series, the particulars now being: method *: HPLC, reversed-phase C 18, 40° C., mobile phase 0.1% aqueous formic acid and acetonitrile, linear gradient from 10% to 95% acetonitrile.
Regarding `COCC1CCCN1C(=O)c1cccc(Nc2ncc(Cl)c(NC3CC3)n2)c1` (stereo not shown) [compound 1061], the logP is 1.77*.
Still for that read-out and setting: the same measure for `COCc1cccc(Nc2ncc(Cl)c(NC3CC3(C)C)n2)c1` (stereo not shown) [compound 1028]: 2.36*;.
Still for that read-out and setting: the same measure for `COC(=O)c1cc(Nc2ncc(Cl)c(NC3CC3)n2)ccc1OC` [compound 1004]: 1.58*.

The series is the same for the next values; noted with them: pH 2.3; read-out: logP (pH2.3).
For the compound `Clc1cnc(Nc2ccccc2)nc1NC1CC1` [Example 2, 5-Chloro-N^4-cyclopropyl-N^2-phenylpyrimidine-2,4-diamine], the chromatographic logP came to 1.61.
In the case of `Ic1cnc(Nc2ccccc2)nc1NC1CC1` [N^4-Cyclopropyl-5-iodo-N^2-phenylpyrimidine-2,4-diamine], the chromatographic logP turned out to be 1.82.

The same series, now with this note: reversed-phase C18 HPLC column; method *: HPLC reversed-phase C 18, 40° C., 0.1% aqueous formic acid and acetonitrile, linear gradient 10% to 95% acetonitrile; read-out: logP.
As for `Clc1cnc(Nc2ccccc2)nc1NC1CC1` [Example 2, 5-Chloro-N^4-cyclopropyl-N^2-phenylpyrimidine-2,4-diamine], the chromatographic logP amounted to 1.61.
